The values below come from publication PMC6930659, “Antiprotozoal Activity of Turkish Origanum onites Essential Oil and Its Components” (Molecules, 2019).

Data set [1] has as its system L. infantum promastigotes. Further details: method as in PMID 31151304. The note with it: 24 h MTT assay; cited from earlier work. (Tetrazolium assays rely on reduction of a dye to a coloured formazan, in cell work by metabolically active cells.)
Data set [2] concerns L. donovani (strain MHOM/ET/67/L82) amastigotes. As to the kind of experiment: In vitro assay for Leishmania donovani axenic amastigotes (resazurin). The data set is classed as cell-based. The note with it: 72 h, read-out: IC50 Leishmania donovani. The method, then:
Amastigotes of L. donovani (strain MHOM/ET/67/L82) were grown in axenic culture at 37 °C in SM medium at pH 5.4 supplemented with 10% heat-inactivated FBS under an atmosphere of 5% CO2. Culture medium (100 μL) with 10^5 amastigotes from axenic culture with or without a serial drug dilution was seeded in 96 well microtiter plates. Serial drug was prepared covering a range of dilutions from 90 to 0.123 μg/mL. After 72 h of incubation, the plates were inspected under an inverted microscope to assure growth of the controls and sterile conditions. Subsequently, 10 μL resazurin solution (12.5 mg resazurin dissolved in 100 mL double-distilled water) was added to each well and the plates were incubated for another 2 h. The plates were then read with a Spectramax Gemini XS microplate fluorometer (Molecular Devices Cooperation, Sunnyvale, CA, USA) using an excitation wavelength of 536 nm and an emission wavelength of 588 nm. Data were analyzed using the software Softmax Pro (Molecular Devices Cooperation, Sunnyvale, CA, USA). A decrease of fluorescence (=inhibition) was expressed as percentage of the fluorescence of control cultures and plotted against the drug concentrations. From the sigmoidal inhibition curves, the IC50 values were calculated. Miltefosine was used as a reference drug.
In general terms: Alamar Blue is a resazurin reagent that responds to reducing activity.

Data set [3] relates to P. falciparium FCR-3 strain. Further details: method as in PMID 23082579. The note with it: cited from earlier work.
Data set [4] is described as follows: In vitro assay for cytotoxicity on mammalian cells (resazurin). The format is cell-based, rat. On the procedure:
Assays were performed in 96 well microtiter plates (4 × 10^4 L6 cells/well), each well containing 100 μL of RPMI 1640 medium supplemented with 1% L-glutamine (200 mM) and 10% FBS. L6 cells are a primary cell line derived from rat skeletal myoblasts. Serial drug dilutions of seven 3-fold dilution steps covering a range from 90 to 0.123 μg/mL were prepared. After 72 h of incubation, the plates were inspected under an inverted microscope to assure growth of the controls and sterile conditions. Resazurin solution (10 μL) (12.5 mg resazurin in 100 mL double-distilled water) was then added to each well and the plates incubated for another 2 h. The plates were then read with a Spectramax Gemini XS microplate fluorometer (Molecular Devices Cooperation, Sunnyvale, CA, USA) using an excitation wavelength of 536 nm and an emission wavelength of 588 nm. Data were analyzed using the microplate reader software Softmax Pro (Molecular Devices Cooperation, Sunnyvale, CA, USA). From the sigmoidal inhibition curves, the IC50 values were calculated. Podophyllotoxin was the positive control.

Data set [5] relates to Trypanosoma brucei rhodesiense STIB 900. As to the kind of experiment: In vitro assay for Trypanosoma brucei rhodesiense (resazurin). The format is cell-based. The method, then: Trypanosoma brucei rhodesiense STIB 900 strain, isolated in 1982 from a human patient in Tanzania and, after several mouse passages, cloned and adapted to axenic culture conditions, was used in this assay. Minimum essential medium (50 μL) supplemented with 25 mM HEPES, 1 g/L additional glucose, 1% MEM non-essential amino acids (100×), 0.2 mM 2-mercaptoethanol, 1 mM Na-pyruvate, and 15% heat inactivated horse serum was added to each well of a 96 well microtiter plate. Serial drug dilutions of seven 3-fold dilution steps covering a range from 90 to 0.123 μg/mL were prepared, and then 4 × 10^4 blood stream forms of T. b. rhodesiense STIB 900 in 50 μL were added to each well and the plate was incubated at 37 °C under a 5% CO2 atmosphere for 72 h. Resazurin solution (resazurin, 12.5 mg in 100 mL double-distilled water) (10 μL) was then added to each well and incubated for a further 2–4 h. At the end of the assay, the plates were read with a Spectramax Gemini XS microplate fluorometer (Molecular Devices Cooperation, Sunnyvale, CA, USA) using an excitation wavelength of 536 nm and an emission wavelength of 588 nm. Data were analyzed using the microplate reader software Softmax Pro (Molecular Devices Cooperation, Sunnyvale, CA, USA). Melarsoprol was used as standard drug.

Data set [6] deals with P. falciparum K1 strain. As to the kind of experiment: In vitro assay for Plasmodium falciparum ([3H]-hypoxanthine incorporation). The format is cell-based. The method, then:
Activity against the erythrocytic stages of P. falciparum was determined using an in vitro modified [^3H]-hypoxanthine incorporation assay, using the chloroquine- and pyrimethamine-resistant K1 strain [68]. Compounds were dissolved in DMSO at 10 mg/mL and further diluted in medium before added to parasite cultures incubated in RPMI 1640 medium without hypoxanthine, supplemented with HEPES (5.94 g/l), NaHCO3 (2.1 g/L), neomycin (100 U/mL), AlbumaxR (5 g/L), and washed human red cells A+ at 2.5% haematocrit (0.3% parasitaemia). Serial drug dilutions of seven 3-fold dilution steps covering a range from 90 to 0.123 μg/mL were prepared. The 96 well plates were incubated in a humidified atmosphere at 37 °C; 4% CO2, 3% O2, 93% N2. After 48 h 50 μL of ^3H-hypoxanthine (=0.5 μCi) was added to each well of the plate. The plates were incubated for a further 24 h under the same conditions. The plates were then harvested with a Betaplate™ cell harvester (Wallac, Zurich, Switzerland), and the red blood cells transferred onto a glass fiber filter then washed with distilled water. The dried filters were inserted into a plastic foil with 10 mL of scintillation fluid, and counted in a Betaplate™ liquid scintillation counter (Wallac, Zurich, Switzerland). […] IC50 values were calculated from the sigmoidal inhibition curves using Microsoft Excel. Chloroquine was used as positive control drug.

Data set [7] has as its system promastigote forms of L. chagasi. Details: method as in PMID 23558998, PMID 23850505. The note with it: cited from earlier work.

Converted amounts (≈) assume the structure as drawn. Where two headings read alike, the source gives them in different places.

By IC50 is commonly meant the concentration that gives 50% inhibition. For the compound `Cc1ccc(C(C)C)c(O)c1` [Thymol], in data set [1], the “IC50 L. infantum promastigotes” value was 7.2 µg/mL (≈ 47.9 µM). The half-maximal inhibitory concentration (IC50) in data set [2] (axenic amastigotes, means of two determinations ± deviation) amounted to 17.3 ± 4.1 µg/mL (≈ 115 µM); in data set [5] (Trypanosoma brucei, 72 h, STIB 900 blood stream forms, 72 h; means of two independent determinations ± deviation from the mean; read-out: IC50 Trypanosoma brucei rhodesiense), 0.11 ± 0.01 µg/mL (≈ 0.732 µM); in data set [6] (K1 strain (chloroquine- and pyrimethamine-resistant), erythrocytic stages, means of two determinations ± deviation, read-out: IC50 Plasmodium falciparum) it was 5.7 ± 0.03 µg/mL (≈ 37.9 µM). Moreover, the “IC50 in vitro antimalarial activity” value in data set [3] is 10 µg/mL (≈ 66.6 µM). Also, the IC50 at 72 h in data set [4] (L6 cells (rat skeletal myoblasts), rat skeletal myoblasts, 72 h, means of two determinations ± deviation, read-out: IC50 Cytotoxicity L6 cells) was 51.8 ± 6.2 µg/mL (≈ 345 µM). Besides, the “IC50 promastigote forms of L. chagasi” value in data set [7] is 9.8 µg/mL.
Take `Cc1ccc(C(C)C)cc1O` [Carvacrol]: in data set [1], the “IC50 L. infantum promastigotes” value is 9.8 µg/mL (≈ 65.2 µM). For the same compound, the half-inhibitory concentration (IC50) was 13.1 ± 3.9 µg/mL (≈ 87.2 µM) in data set [2]; 0.15 ± 0.04 µg/mL (≈ 0.999 µM) in data set [5] (Trypanosoma brucei; STIB 900 blood stream forms, 72 h; means of two independent determinations ± deviation from the mean; read-out: IC50 Trypanosoma brucei rhodesiense); 6.4 ± 0.9 µg/mL (≈ 42.6 µM) in data set [6] (K1, read-out: IC50 Plasmodium falciparum). Further, in data set [3], the “IC50 in vitro antimalarial activity” value is 10 µg/mL (≈ 66.6 µM). Also, in data set [4] (rat), half-maximal inhibition (IC50 at 72 h) was put at 48.8 ± 1.1 µg/mL (≈ 325 µM). The “selectivity index (IC50 value against L6 mammalian cells/IC50 value against parasite)” value in data set [5] (against T. b. rhodesiense) came to 327.5. Moreover, the “IC50 promastigote forms of L. chagasi” value in data set [7] is 2.3 µg/mL.
